System: Met, ERBB2, CCND1, PTEN, PARP1, GSK3B
Assay: RPPA with STRING network analysis
Format: cell-based, human
Conditions: peptide at 3 μM
Experimental: growth and stemness was further supported by the addition of laminin extracellular matrix (Cultrex 3446-005-01, 4-10 mg/mL) to the growth media and to create pre-coated flasks/384w plates. Cells were cultured in T75 cm2 flasks and passaged as follows: Glioma stem cells generally grow slowly (~60hrs doubling time, excepting GCGR-E57 cells ~24hrs) and lag phase was exacerbated by sparse seeding. Cell confluence is generally ~80 -90% prior to passaging, whereby the culture media was aspirated, the cells washed (PBS) and Accutase solution (Sigma A6964, 1 mL) was added to detach the cells, which were then incubated at 37 °C for <5 minutes. Cells were resuspended in media and centrifuged for 3 minutes at 300 × g. Resuspended cells were typically split 1:5, 1:8 (GCGR-E57 cells) and 1:2, 1:4 for the remainder of cell lines, depending on requirements . Cells were passaged every 4-7 days to maintain health and growth and discarded after 3 months, whereupon a fresh batch of cells […]
Culture media was aspirated and cells washed with wash media. […] A 10 μL sample of the cell suspension was pipetted onto the reading surface of a DeNovix CellDrop automated cell counter and the reading was used to dilute the suspension in complete media to 250,000 cells/mL. […]
The cell pellet preparation was performed on ice. […] The supernatant was aspirated, and the pellets were stored at -80 °C until ready for RPPA. […]

Substance: H-RRRRRCQWW-NH2 [Peptide 2]
- proteins with decreased expression (RPPA, STRING network analysis): PTEN, PARP1, GSK3B
- proteins with increased expression (RPPA, STRING network analysis): Met, ERBB2, CCND1

— publication PMC11865978, “Cellular Activity of CQWW Nullomer-Derived Peptides” (ACS Omega, 2025)
